ChEMBL document CHEMBL5331072, “Development of potent and selective FAAH inhibitors with improved drug-like properties as potential tools to treat neuroinflammatory conditions” (Eur J Med Chem, 2023)
Values after ≈ are worked out from the molar mass of the structure shown. Active and inactive are the calls of the source. The calls are words filed in the database; no cut-off is given here.

Key:
[1] = molecular target: T1, Fatty-acid amide hydrolase 1 (Homo sapiens, UniProt O00519); experiment: Inhibition of human recombinant FAAH using AMC-AA as substrate preincubated for 30 mins followed by substrate addition and measured after 30 mins by multimode plate reader analysis
T1 sequence (O00519 whole entry): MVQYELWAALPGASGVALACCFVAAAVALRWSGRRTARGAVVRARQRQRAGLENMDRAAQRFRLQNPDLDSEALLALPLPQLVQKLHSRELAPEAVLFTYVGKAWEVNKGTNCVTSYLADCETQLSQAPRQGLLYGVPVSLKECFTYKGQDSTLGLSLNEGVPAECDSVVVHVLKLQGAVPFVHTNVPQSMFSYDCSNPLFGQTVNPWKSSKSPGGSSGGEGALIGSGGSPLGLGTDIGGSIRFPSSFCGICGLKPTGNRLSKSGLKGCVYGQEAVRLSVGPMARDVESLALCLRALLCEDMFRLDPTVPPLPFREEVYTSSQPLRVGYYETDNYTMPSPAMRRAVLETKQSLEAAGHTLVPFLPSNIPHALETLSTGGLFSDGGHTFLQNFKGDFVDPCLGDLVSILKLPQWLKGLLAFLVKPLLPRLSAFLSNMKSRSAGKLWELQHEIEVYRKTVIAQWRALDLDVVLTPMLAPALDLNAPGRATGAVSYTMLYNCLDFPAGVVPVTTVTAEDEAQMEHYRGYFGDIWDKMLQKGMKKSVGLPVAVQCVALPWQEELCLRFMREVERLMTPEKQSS

Monoglyceride lipase = molecular target: T2, Monoglyceride lipase (Homo sapiens, UniProt Q99685); experiment: Inhibition of human recombinant MAGL using 7-hydroxycoumarinyl arachidonate as substrate preincubated for 30 mins followed by substrate addition and measured after 30 mins by multimode plate reader analysis
T2 sequence (Q99685 whole entry): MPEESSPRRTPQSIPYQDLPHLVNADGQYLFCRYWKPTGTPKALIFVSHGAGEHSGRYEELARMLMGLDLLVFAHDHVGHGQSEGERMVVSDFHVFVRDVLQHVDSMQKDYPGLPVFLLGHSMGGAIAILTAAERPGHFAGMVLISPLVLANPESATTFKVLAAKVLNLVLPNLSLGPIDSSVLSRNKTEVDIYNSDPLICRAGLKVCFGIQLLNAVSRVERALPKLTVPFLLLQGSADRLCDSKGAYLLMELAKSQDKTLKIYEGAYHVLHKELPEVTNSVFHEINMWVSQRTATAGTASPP

[2] = Chemical stability of the compound at pH 3 measured for 24 hrs by HPLC analysis; format: physicochemical; details: buffer, read-out: Stability
[3] = Chemical stability of the compound at pH 7.4 measured for 24 hrs by HPLC analysis; format: physicochemical; details: buffer, read-out: Stability
[4] = Solubility of compound at pH 3 measured for 24 hrs; format: physicochemical; details: buffer
[5] = Solubility of compound at pH 7.4 measured for 24 hrs; format: physicochemical; details: buffer
[6] = Cytotoxicity against mouse NIH3T3 cells assessed as inhibition of cell growth measured for 24 hrs by neutral red uptake assay; format: toxicity, cell-based
1321N1 [7] = experiment: Cytotoxicity against human 1321N1 cells assessed as inhibition of cell growth at 10 nM measured for 24 hrs by MTT assay; format: functional; parameters: scale not given: the % may be the effect or the level left
1321N1 [8] = experiment: Cytotoxicity against human 1321N1 cells assessed as inhibition of cell growth at 100 nM measured for 24 hrs by MTT assay; format: functional; parameters: scale not given: the % may be the effect or the level left
1321N1 [9] = experiment: Cytotoxicity against human 1321N1 cells assessed as inhibition of cell growth at 1 uM measured for 24 hrs by MTT assay; format: functional; parameters: scale not given: the % may be the effect or the level left
1321N1 [10] = experiment: Cytotoxicity against human 1321N1 cells assessed as inhibition of cell growth at 10 uM measured for 24 hrs by MTT assay; format: functional; parameters: scale not given: the % may be the effect or the level left
1321N1 [11] = experiment: Cytotoxicity against human 1321N1 cells assessed as inhibition of cell growth at 30 uM measured for 24 hrs by MTT assay; format: functional; parameters: scale not given: the % may be the effect or the level left
[12] = Cardiotoxicity in Langendorff-perfused Wistar rat heart assessed as effect on heart rate at 0.3 uM by ECG analysis (reference value: 263.5+/-8.2 bpm); format: toxicity, tissue-based
[13] = Cardiotoxicity in Langendorff-perfused Wistar rat heart assessed as effect on heart rate at 1 uM by ECG analysis (reference value: 263.5+/-8.2 bpm); format: toxicity, tissue-based
[14] = Cardiotoxicity in Langendorff-perfused Wistar rat heart assessed as effect on heart rate at 10 uM by ECG analysis (reference value: 263.5+/-8.2 bpm); format: toxicity, tissue-based
[15] = Cardiotoxicity in Langendorff-perfused Wistar rat heart assessed as effect on heart rate at 30 uM by ECG analysis (reference value: 263.5+/-8.2 bpm); format: toxicity, tissue-based
[16] = Cardiotoxicity in Langendorff-perfused Wistar rat heart assessed as effect on RR time at 0.3 uM by ECG analysis (reference value: 230+/-8.7 milliseconds); format: toxicity, tissue-based
[17] = Cardiotoxicity in Langendorff-perfused Wistar rat heart assessed as effect on RR time at 1 uM by ECG analysis (reference value: 230+/-8.7 milliseconds); format: toxicity, tissue-based
[18] = Cardiotoxicity in Langendorff-perfused Wistar rat heart assessed as effect on RR time at 10 uM by ECG analysis (reference value: 230+/-8.7 milliseconds); format: toxicity, tissue-based
[19] = Cardiotoxicity in Langendorff-perfused Wistar rat heart assessed as effect on RR time at 30 uM by ECG analysis (reference value: 230+/-8.7 milliseconds); format: toxicity, tissue-based
[20] = Cardiotoxicity in Langendorff-perfused Wistar rat heart assessed as effect on PQ interval time at 0.3 uM by ECG analysis (Rvb =40.8+/-2.3 milliseconds); format: toxicity, tissue-based
[21] = Cardiotoxicity in Langendorff-perfused Wistar rat heart assessed as effect on PQ interval time at 1 uM by ECG analysis (Rvb =40.8+/-2.3 milliseconds); format: toxicity, tissue-based
[22] = Cardiotoxicity in Langendorff-perfused Wistar rat heart assessed as effect on PQ interval time at 10 uM by ECG analysis (Rvb =40.8+/-2.3 milliseconds); format: toxicity, tissue-based
[23] = Cardiotoxicity in Langendorff-perfused Wistar rat heart assessed as effect on PQ interval time at 30 uM by ECG analysis (Rvb =40.8+/-2.3 milliseconds); format: toxicity, tissue-based
[24] = Cardiotoxicity in Langendorff-perfused Wistar rat heart assessed as effect on QRS interval time at 0.3 uM by ECG analysis (Rvb =13.6+/-0.7 milliseconds); format: toxicity, tissue-based
[25] = Cardiotoxicity in Langendorff-perfused Wistar rat heart assessed as effect on QRS interval time at 1 uM by ECG analysis (Rvb =13.6+/-0.7 milliseconds); format: toxicity, tissue-based
[26] = Cardiotoxicity in Langendorff-perfused Wistar rat heart assessed as effect on QRS interval time at 10 uM by ECG analysis (Rvb =13.6+/-0.7 milliseconds); format: toxicity, tissue-based
[27] = Cardiotoxicity in Langendorff-perfused Wistar rat heart assessed as effect on QRS interval time at 30 uM by ECG analysis (Rvb =13.6+/-0.7 milliseconds); format: toxicity, tissue-based
[28] = Cardiotoxicity in Langendorff-perfused Wistar rat heart assessed as effect on QTc interval time at 0.3 uM by ECG analysis (Rvb =72.1+/-1.4 milliseconds); format: toxicity, tissue-based
[29] = Cardiotoxicity in Langendorff-perfused Wistar rat heart assessed as effect on QTc interval time at 1 uM by ECG analysis (Rvb =72.1+/-1.4 milliseconds); format: toxicity, tissue-based
[30] = Cardiotoxicity in Langendorff-perfused Wistar rat heart assessed as effect on QTc interval time at 10 uM by ECG analysis (Rvb =72.1+/-1.4 milliseconds); format: toxicity, tissue-based
[31] = Cardiotoxicity in Langendorff-perfused Wistar rat heart assessed as effect on QTc interval time at 30 uM by ECG analysis (Rvb =72.1+/-1.4 milliseconds); format: toxicity, tissue-based
1321N1 [32] = experiment: Antiinflammatory activity against human 1321N1 cells assessed as reduction in TBHP-induced ROS production at 100 nM incubated for 24 hrs by CellROX green reagent based flow cytometry assay; format: functional, cell-based
1321N1 [33] = experiment: Antiinflammatory activity against human 1321N1 cells assessed as reduction in TBHP-induced ROS production at 1 uM incubated for 24 hrs by CellROX green reagent based flow cytometry assay; format: functional, cell-based
[34] = Neurotoxicity against Wistar rat Hippocampus assessed as cell survival at 0.3 to 100 nM measured for 96 hrs by densitometric analysis; format: toxicity, tissue-based; details: 0.1 µM, dose 0.3-100 nM
Hippocampus [35] = experiment: Neuroprotective activity against Wistar rat Hippocampus assessed as reduction in LPS/IFN-gamma induced PI uptake in CA1 region at 3 to 1000 nM measured for 96 hrs; format: functional, tissue-based; details: dose 3-1000 nM
Hippocampus [36] = experiment: Neuroprotective activity against Wistar rat Hippocampus assessed as reduction in LPS/IFN-gamma induced PI uptake in CA1 region at 30 to 100 nM measured for 96 hrs; format: functional, tissue-based; details: dose 30-100 nM

Compound `NC(=O)c1ccn(-c2cccc(OC(=O)N3CCN(CCCc4ccccc4)CC3)c2)c1` has an IC50 [1] of 0.0101 µM, an IC50 (Monoglyceride lipase) greater than 10 µM and a remaining at 24 h [2] greater than 99%. The remaining at 24 h [3] was greater than 99%, the solubility at 24 h [4] was 228 µM (≈ 98.6 µg/mL) and the solubility at 24 h [5] was 42 µM (≈ 18.2 µg/mL). It also gave an IC50 at 24 h [6] of 46 µM, an Activity (1321N1 [7]) of 100.5% and an Activity (1321N1 [8]) of 99.5%. For the same compound, the Activity (1321N1 [9]) was 100.3%, the Activity (1321N1 [10]) was 100% and the Activity (1321N1 [11]) was 101.5%. It also gave an Activity [12] of 270 bpm, an Activity [13] of 273 bpm and an Activity [14] of 263.8 bpm. For the same compound, the Activity [15] was 190.2 bpm, the Time [16] was 223.8 ms and the Time [17] was 220.2 ms. For the same compound, the Time [18] was 229.8 ms, the Time [19] was 286.4 ms and the Time [20] was 39.2 ms. The Time [21] was 40.6 ms, the Time [22] was 41.2 ms and the Time [23] was 54.8 ms. The Time [24] was 13.8 ms, the Time [25] was 13.8 ms and the Time [26] was 14 ms. It also gave a Time [27] of 14.6 ms, a Time [28] of 70.6 ms and a Time [29] of 70.6 ms. For the same compound, the Time [30] was 71 ms, the Time [31] was 73.5 ms and the Activity (1321N1 [32]) was “Active”. The Activity (1321N1 [33]) was “Active”, the Activity [34] was “Non-Toxic” and the Activity (Hippocampus [35]) was “Active”. For the same compound, the Activity (Hippocampus [36]) was “Active”.
